The source of these data is ChEMBL document CHEMBL5291721, “A preclinical secondary pharmacology resource illuminates target-adverse drug reaction associations of marketed drugs” (Nat Commun, 2023).

The structures appear in SMILES notation.

Assay [1] deals with Hydroxycarboxylic acid receptor 2 (Homo sapiens, UniProt Q8TDS4).
The target in assay [2] is T1, Type-2 angiotensin II receptor (Homo sapiens, UniProt P50052).
T1 sequence (P50052 whole entry): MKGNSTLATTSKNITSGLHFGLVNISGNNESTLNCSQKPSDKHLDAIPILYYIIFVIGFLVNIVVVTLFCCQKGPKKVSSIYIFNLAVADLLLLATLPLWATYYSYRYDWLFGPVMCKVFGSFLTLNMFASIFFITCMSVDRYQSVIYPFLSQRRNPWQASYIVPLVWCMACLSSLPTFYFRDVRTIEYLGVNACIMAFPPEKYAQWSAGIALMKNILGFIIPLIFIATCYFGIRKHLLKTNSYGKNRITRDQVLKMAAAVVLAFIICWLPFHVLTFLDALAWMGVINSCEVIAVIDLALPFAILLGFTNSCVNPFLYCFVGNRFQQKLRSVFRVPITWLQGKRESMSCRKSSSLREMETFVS
It is filed as functional.

In assay [3] the target is T2, Type-1 angiotensin II receptor (Homo sapiens, UniProt P30556).
T2 sequence (P30556 whole entry): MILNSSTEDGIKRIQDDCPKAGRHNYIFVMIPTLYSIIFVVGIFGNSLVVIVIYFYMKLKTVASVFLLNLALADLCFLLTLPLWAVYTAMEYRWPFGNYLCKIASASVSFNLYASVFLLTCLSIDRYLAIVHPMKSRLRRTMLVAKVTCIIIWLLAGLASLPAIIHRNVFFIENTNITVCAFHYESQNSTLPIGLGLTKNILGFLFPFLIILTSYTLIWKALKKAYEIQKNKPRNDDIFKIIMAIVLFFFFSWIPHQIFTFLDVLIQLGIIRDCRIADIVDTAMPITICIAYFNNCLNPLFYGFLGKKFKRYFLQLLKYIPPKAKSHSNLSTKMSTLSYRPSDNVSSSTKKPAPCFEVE

Assay [4] has as its target T3, Substance-K receptor (Homo sapiens, UniProt P21452).
T3 sequence (P21452 whole entry): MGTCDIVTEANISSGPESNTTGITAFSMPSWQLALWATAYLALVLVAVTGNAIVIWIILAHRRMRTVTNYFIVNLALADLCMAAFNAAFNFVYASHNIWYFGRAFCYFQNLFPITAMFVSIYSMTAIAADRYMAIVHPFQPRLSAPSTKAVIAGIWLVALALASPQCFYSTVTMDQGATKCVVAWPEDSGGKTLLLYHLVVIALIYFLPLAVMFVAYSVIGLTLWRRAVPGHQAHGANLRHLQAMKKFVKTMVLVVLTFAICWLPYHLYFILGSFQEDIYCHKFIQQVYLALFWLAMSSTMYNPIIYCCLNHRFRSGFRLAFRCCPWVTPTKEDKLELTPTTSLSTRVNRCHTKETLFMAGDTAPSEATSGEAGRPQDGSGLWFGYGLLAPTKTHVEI

Assay [5] addresses Rod cGMP-specific 3',5'-cyclic phosphodiesterase subunit alpha (Homo sapiens, UniProt P16499). It is filed as functional.
The target in assay [6] is T4, Muscarinic acetylcholine receptor M2 (Homo sapiens, UniProt P08172).
T4 sequence (P08172 whole entry): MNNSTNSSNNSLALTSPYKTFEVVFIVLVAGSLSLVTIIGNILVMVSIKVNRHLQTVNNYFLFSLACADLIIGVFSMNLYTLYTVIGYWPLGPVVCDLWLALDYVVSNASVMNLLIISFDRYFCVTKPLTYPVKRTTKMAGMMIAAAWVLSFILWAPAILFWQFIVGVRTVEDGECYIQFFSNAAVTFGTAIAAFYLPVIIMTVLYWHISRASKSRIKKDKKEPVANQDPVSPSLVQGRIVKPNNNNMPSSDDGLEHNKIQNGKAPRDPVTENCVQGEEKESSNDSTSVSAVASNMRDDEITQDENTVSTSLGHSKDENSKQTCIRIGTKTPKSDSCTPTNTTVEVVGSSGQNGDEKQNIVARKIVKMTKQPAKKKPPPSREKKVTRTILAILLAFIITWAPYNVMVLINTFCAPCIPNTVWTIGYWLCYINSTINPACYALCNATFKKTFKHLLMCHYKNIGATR

Assay [7] deals with T5, Glucocorticoid receptor (Homo sapiens, UniProt P04150).
T5 sequence (P04150 whole entry): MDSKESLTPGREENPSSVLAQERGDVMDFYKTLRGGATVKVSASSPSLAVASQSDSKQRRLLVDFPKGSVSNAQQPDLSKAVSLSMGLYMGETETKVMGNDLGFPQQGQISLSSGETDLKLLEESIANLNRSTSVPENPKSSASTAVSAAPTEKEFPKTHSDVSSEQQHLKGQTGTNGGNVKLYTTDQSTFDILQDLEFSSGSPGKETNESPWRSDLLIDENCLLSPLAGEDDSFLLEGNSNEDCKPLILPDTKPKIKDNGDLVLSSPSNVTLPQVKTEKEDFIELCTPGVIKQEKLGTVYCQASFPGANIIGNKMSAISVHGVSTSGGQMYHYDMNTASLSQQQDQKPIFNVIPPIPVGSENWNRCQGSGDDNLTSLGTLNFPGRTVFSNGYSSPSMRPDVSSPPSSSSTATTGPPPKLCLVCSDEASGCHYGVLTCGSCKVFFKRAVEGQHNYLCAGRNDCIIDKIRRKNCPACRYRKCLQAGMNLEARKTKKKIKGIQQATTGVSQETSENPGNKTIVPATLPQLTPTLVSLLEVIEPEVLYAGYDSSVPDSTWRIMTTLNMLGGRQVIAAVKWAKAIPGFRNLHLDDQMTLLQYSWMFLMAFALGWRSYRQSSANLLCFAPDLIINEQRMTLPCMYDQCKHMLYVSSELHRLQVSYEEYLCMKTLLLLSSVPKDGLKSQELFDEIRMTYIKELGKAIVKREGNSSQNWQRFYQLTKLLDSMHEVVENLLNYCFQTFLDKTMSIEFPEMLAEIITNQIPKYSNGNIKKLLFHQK
The class given is functional.
Also: assay procedure not described here.

Chain of Hydroxycarboxylic acid receptor 2 (Q8TDS4 whole entry): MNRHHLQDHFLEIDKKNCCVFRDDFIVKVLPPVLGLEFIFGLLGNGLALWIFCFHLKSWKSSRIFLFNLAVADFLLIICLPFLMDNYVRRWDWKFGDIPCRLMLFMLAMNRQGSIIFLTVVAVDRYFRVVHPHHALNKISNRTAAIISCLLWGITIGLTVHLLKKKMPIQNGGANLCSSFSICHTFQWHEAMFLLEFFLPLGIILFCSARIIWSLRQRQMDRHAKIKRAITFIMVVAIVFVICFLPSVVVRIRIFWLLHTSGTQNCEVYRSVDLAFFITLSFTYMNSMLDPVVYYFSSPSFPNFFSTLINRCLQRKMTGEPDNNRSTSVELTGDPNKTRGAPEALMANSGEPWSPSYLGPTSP
Chain of Rod cGMP-specific 3',5'-cyclic phosphodiesterase subunit alpha (P16499 whole entry): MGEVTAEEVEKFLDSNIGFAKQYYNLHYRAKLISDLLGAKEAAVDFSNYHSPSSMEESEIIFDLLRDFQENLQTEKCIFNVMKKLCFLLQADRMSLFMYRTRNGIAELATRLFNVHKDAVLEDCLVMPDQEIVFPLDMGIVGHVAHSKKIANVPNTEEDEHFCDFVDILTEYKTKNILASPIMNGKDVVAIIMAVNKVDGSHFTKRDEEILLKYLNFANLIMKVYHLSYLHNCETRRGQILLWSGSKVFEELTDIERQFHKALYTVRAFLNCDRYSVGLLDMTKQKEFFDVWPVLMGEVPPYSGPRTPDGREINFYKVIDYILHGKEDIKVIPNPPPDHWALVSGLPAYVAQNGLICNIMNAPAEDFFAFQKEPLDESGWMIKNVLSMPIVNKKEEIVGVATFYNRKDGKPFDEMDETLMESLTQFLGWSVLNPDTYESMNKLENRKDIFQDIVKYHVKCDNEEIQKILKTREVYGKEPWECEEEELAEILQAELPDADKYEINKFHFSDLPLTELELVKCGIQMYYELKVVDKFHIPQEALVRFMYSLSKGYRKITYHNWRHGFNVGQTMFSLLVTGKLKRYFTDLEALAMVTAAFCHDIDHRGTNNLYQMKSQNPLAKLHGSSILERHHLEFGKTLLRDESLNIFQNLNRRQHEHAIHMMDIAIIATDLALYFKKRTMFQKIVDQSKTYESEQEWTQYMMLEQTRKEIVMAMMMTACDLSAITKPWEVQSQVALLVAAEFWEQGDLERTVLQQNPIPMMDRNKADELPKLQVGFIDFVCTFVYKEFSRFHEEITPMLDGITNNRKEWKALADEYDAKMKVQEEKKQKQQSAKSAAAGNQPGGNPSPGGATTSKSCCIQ

Usually AC50 stands for the concentration at which the activity in the assay is half-maximal. A lower AC50 goes with greater potency. Molecule `CCCN(CCC)C(=O)C(CCC(=O)O)NC(=O)c1ccccc1` (stereo not drawn) [PROGLUMIDE] yielded an AC50 in assay [1] of over 10 µM.
`C[C@](N)(Cc1ccc(O)c(O)c1)C(=O)O` [METHYLDOPA] registered an AC50 in assay [2] of over 100 µM.
The molecule `CCCc1nc(C(C)(C)O)c(C(=O)OCc2oc(=O)oc2C)n1Cc1ccc(-c2ccccc2-c2nnn[nH]2)cc1` [OLMESARTAN MEDOXOMIL] displayed an AC50 in assay [3] of 1.7 nM.
As to `N#Cc1ccc([C@H]2CCc3cncn32)c(F)c1` [OSILODROSTAT], the AC50 in assay [4] and in assay [5] was over 10 µM throughout.
For `CCCCc1ncc(/C=C(\Cc2cccs2)C(=O)O)n1Cc1ccc(C(=O)O)cc1` [EPROSARTAN], the AC50 was over 10 µM in assay [4], over 100 µM in assay [2], over 10 µM in assay [5] and 4.2 nM in assay [3].
Consider `CC(C[N+](C)(C)C)OC(N)=O` (stereo not drawn) [BETHANECHOL], for which the concentration at half-maximal activity (AC50) in assay [6] is over 30 µM.
Molecule `CN1C(=O)C(O)N=C(c2ccccc2)c2cc(Cl)ccc21` (stereo not drawn) [TEMAZEPAM] came in with an AC50 in assay [1] of over 10 µM.
Consider `CC(=O)O[C@H]1CC[C@@]2(C)C(=CC[C@@H]3[C@@H]2CC[C@]2(C)C(c4cccnc4)=CC[C@@H]32)C1` [ABIRATERONE ACETATE], for which the AC50 in assay [7] was over 30 µM.
The same measure, in the same setting: for `C/C(O)=C(\C#N)C(=O)Nc1ccc(C(F)(F)F)cc1` [TERIFLUNOMIDE] the value was over 10 µM.
